Experimental data from PubChem BioAssay AID330 (DTP/NCI, 2004).
Several values for one entry are separate records, joined by “and”; a condition that tells them apart may be missing. Identical values can stand only once. Toxic doses and inconclusive results are not listed.

Test system: P388 leukemia ip, CD2F1 mice, survival T/C
Assay: NCI In Vivo Anticancer Drug Screen. Data for tumor model P388 Leukemia (intraperitoneal) in CD2F1 (CDF1) mice
Settings: endpoint: median survival time, higher = longer survival
How it was run: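 Mice carrying the transplanted tumor received test compound or vehicle. Survival was recorded in each group, and the value is the treated-group measurement divided by that of the vehicle-treated control group.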

[1] = dose: 100.0 mg/kg/injection, schedule: Q01DX009 (ip), vehicle: saline
[2] = dose: 200.0 mg/kg/injection, schedule: Q01DX009 (ip), vehicle: saline
[3] = dose: 50.0 mg/kg/injection, schedule: Q01DX005 (ip), vehicle: Klucel (hydroxypropylcellulose) (HPC)
[4] = dose: 100.0 mg/kg/injection, schedule: Q01DX005 (ip), vehicle: Klucel (hydroxypropylcellulose) (HPC)
[5] = dose: 200.0 mg/kg/injection, schedule: Q01DX005 (ip), vehicle: Klucel (hydroxypropylcellulose) (HPC)
[6] = dose: 3.12 mg/kg/injection, schedule: Q01DX009 (ip), vehicle: saline
[7] = dose: 100.0 mg/kg/injection, schedule: Q01DX009 (ip), vehicle: saline with Tween-80
[8] = dose: 200.0 mg/kg/injection, schedule: Q01DX009 (ip), vehicle: saline with Tween-80
[9] = dose: 50.0 mg/kg/injection, schedule: Q01DX005 (ip), vehicle: saline with Tween-80
[10] = dose: 6.25 mg/kg/injection, schedule: Q01DX005 (ip), vehicle: saline with Tween-80

With C1CCC2=NCCCN2CC1 the T/C (dose: 6.25 mg/kg/injection, schedule: Q01DX009 (ip), vehicle: Klucel (hydroxypropylcellulose) (HPC)) was 107 % of control, the T/C (dose: 12.5 mg/kg/injection, schedule: Q01DX009 (ip), vehicle: Klucel (hydroxypropylcellulose) (HPC)) was 103 % of control and the T/C (dose: 25.0 mg/kg/injection, schedule: Q01DX009 (ip), vehicle: Klucel (hydroxypropylcellulose) (HPC)) was 105 % of control.

With CCCCN1C(=O)CC(=O)N(c2ccccc2)C1=O the T/C (dose: 50.0 mg/kg/injection, schedule: Q01DX009 (ip), vehicle: saline) was 99 % of control, the T/C [1] was 103 % of control and the T/C [2] was 93 % of control.

With C/C(=N\NC(=S)Nc1ccc(S(=O)(=O)O)cc1)c1ccccn1 the T/C [3] was 107 % of control, the T/C (dose: 50.0 mg/kg/injection, schedule: Q01DX005 (ip), vehicle: suspension in saline) was 101 % of control and the T/C [4] was 108 % of control. The T/C (dose: 100.0 mg/kg/injection, schedule: Q01DX005 (ip), vehicle: suspension in saline) was 105 % of control, the T/C [5] was 106 % of control and the T/C (dose: 200.0 mg/kg/injection, schedule: Q01DX005 (ip), vehicle: suspension in saline) was 121 % of control. The T/C (dose: 400.0 mg/kg/injection, schedule: Q01DX005 (ip), vehicle: Klucel (hydroxypropylcellulose) (HPC)) was 115 % of control.

Cc1[nH]c(/N=C/c2ccc(N(C)C)cc2)c(C#N)c1C was tested, and the T/C (dose: 60.0 mg/kg/injection, schedule: Q01DX005 (ip), vehicle: saline with Tween-80) was 91 % of control, the T/C (dose: 120.0 mg/kg/injection, schedule: Q01DX005 (ip), vehicle: saline with Tween-80) was 90 % of control and the T/C (dose: 240.0 mg/kg/injection, schedule: Q01DX005 (ip), vehicle: saline with Tween-80) was 97 % of control.

For Cc1ncc(CO)c(C2NOCc3nscc32)c1O (centres undefined), the T/C (dose: 3.5 mg/kg/injection, schedule: Q04DX003 (ip), vehicle: saline) was 100 % of control, the T/C (dose: 7.0 mg/kg/injection, schedule: Q04DX003 (ip), vehicle: saline) was 95 % of control and the T/C (dose: 14.0 mg/kg/injection, schedule: Q04DX003 (ip), vehicle: saline) was 100 % of control.

In the case of CCOP(=O)(O)C1CCCC(C)[N-]1.CCOP(=O)(O)C1CCCC(C)[N-]1.CCOP(=O)(O)C1CCCC(C)[N-]1.[Cr+3] (centres undefined), the T/C (dose: 100.0 mg/kg/injection, schedule: Q04DX003 (ip), vehicle: Klucel (hydroxypropylcellulose) (HPC)) is reported as 100 % of control and the T/C (dose: 200.0 mg/kg/injection, schedule: Q04DX003 (ip), vehicle: Klucel (hydroxypropylcellulose) (HPC)) is reported as 92 % of control.

For CN1CN(c2ccc([N+](=O)[O-])cc2)N=N1, the T/C [3] was 95 % of control, the T/C [4] was 97 % of control and the T/C [5] was 94 % of control.

With CCN(CC)CN1C(=O)CC2(C1=O)c1ccccc1-c1ccccc12 the T/C (dose: 100.0 mg/kg/injection, schedule: Q01DX001 (ip), vehicle: water) was 109 % of control, the T/C (dose: 200.0 mg/kg/injection, schedule: Q01DX001 (ip), vehicle: water) was 106 % of control and the T/C (dose: 400.0 mg/kg/injection, schedule: Q01DX001 (ip), vehicle: water) was 110 % of control.

For Nc1oc([N+](=O)[O-])cc1[N+](=O)[O-], the T/C [1] was 106 % of control and the T/C [2] was 118 % of control.

With CNC(=O)N(N=O)c1[nH]c(=O)ncc1Br the T/C (dose: 50.0 mg/kg/injection, schedule: Q01DX005 (ip), vehicle: saline + Tween-80 + alcohol) was 104 % of control, the T/C (dose: 100.0 mg/kg/injection, schedule: Q01DX005 (ip), vehicle: saline + Tween-80 + alcohol) was 108 % of control and the T/C (dose: 200.0 mg/kg/injection, schedule: Q01DX005 (ip), vehicle: saline + Tween-80 + alcohol) was 118 % of control.

In the case of CCn1c2[n+](c3ccccc31)CCC2, the T/C [6] is reported as 114 % of control, the T/C (dose: 6.25 mg/kg/injection, schedule: Q01DX009 (ip), vehicle: saline) is reported as 113 % of control and the T/C (dose: 12.5 mg/kg/injection, schedule: Q01DX009 (ip), vehicle: saline) is reported as 114 % of control.

CC(=O)Nc1ccc(C(=O)C(C)=O)cc1 was tested, and the T/C (dose: 50.0 mg/kg/injection, schedule: Q01DX009 (ip), vehicle: saline with Tween-80) was 100 % of control, the T/C [7] was 104 % of control and the T/C [8] was 97 % of control.

For COC(=O)n1nc(C)c(N(C)C)n1, the T/C [9] was 99 % of control, the T/C (dose: 100.0 mg/kg/injection, schedule: Q01DX005 (ip), vehicle: saline with Tween-80) was 106 % of control and the T/C (dose: 200.0 mg/kg/injection, schedule: Q01DX005 (ip), vehicle: saline with Tween-80) was 113 % of control.

With C/C=C1\C(=O)OC23C=CC4C(C(=O)OC)C(O)OC(OC12)C43 (centres undefined) the T/C (dose: 0.12 mg/kg/injection, schedule: Q01DX009 (ip), vehicle: saline) was 89 % of control, the T/C (dose: 0.25 mg/kg/injection, schedule: Q01DX009 (ip), vehicle: Klucel (hydroxypropylcellulose) (HPC)) was 100 % of control and the T/C (dose: 0.25 mg/kg/injection, schedule: Q01DX009 (ip), vehicle: saline) was 104 % of control. For the same molecule, the T/C (dose: 0.5 mg/kg/injection, schedule: Q01DX009 (ip), vehicle: Klucel (hydroxypropylcellulose) (HPC)) was 99 % of control, the T/C (dose: 0.5 mg/kg/injection, schedule: Q01DX009 (ip), vehicle: saline) was 106 % of control and the T/C (dose: 1.0 mg/kg/injection, schedule: Q01DX009 (ip), vehicle: Klucel (hydroxypropylcellulose) (HPC)) was 98 % of control. The T/C (dose: 1.0 mg/kg/injection, schedule: Q01DX009 (ip), vehicle: saline with Tween-80) was 106 % of control, the T/C (dose: 1.0 mg/kg/injection, schedule: Q01DX009 (ip), vehicle: saline) was 101 % of control and the T/C (dose: 2.0 mg/kg/injection, schedule: Q01DX009 (ip), vehicle: Klucel (hydroxypropylcellulose) (HPC)) was 98 % of control. For the same molecule, the T/C (dose: 2.0 mg/kg/injection, schedule: Q01DX009 (ip), vehicle: saline with Tween-80) was 110 % of control and the T/C (dose: 4.0 mg/kg/injection, schedule: Q01DX009 (ip), vehicle: saline with Tween-80) was 107 % of control.

In the case of CC1(C)OC2OC(CN=NNc3ccc([N+](=O)[O-])cc3)C3OC(C)(C)OC3C2O1 (centres undefined), the T/C (dose: 60.0 mg/kg/injection, schedule: Q01DX005 (ip), vehicle: Klucel + Tween-80) is reported as 100 % of control, the T/C (dose: 120.0 mg/kg/injection, schedule: Q01DX005 (ip), vehicle: Klucel + Tween-80) is reported as 91 % of control and the T/C (dose: 240.0 mg/kg/injection, schedule: Q01DX005 (ip), vehicle: Klucel + Tween-80) is reported as 87 % of control.

With CC(C)N=C(NC(C)C)c1ccc(NC(=O)Nc2ccc(NC(=O)Nc3ccc(C(=NC(C)C)NC(C)C)cc3)cc2)cc1 the T/C (dose: 1.56 mg/kg/injection, schedule: Q01DX005 (ip), vehicle: saline with Tween-80) was 111 % of control, the T/C (dose: 3.13 mg/kg/injection, schedule: Q01DX005 (ip), vehicle: saline with Tween-80) was 108 % of control and 113 % of control and the T/C [10] was 104 % of control and 124 % of control.

With Oc1ccc(Cl)cc1C1c2ccccc2Oc2ccccc21 the T/C (dose: 50.0 mg/kg/injection, schedule: Q01DX009 (ip), vehicle: Klucel (hydroxypropylcellulose) (HPC)) was 115 % of control and the T/C (dose: 100.0 mg/kg/injection, schedule: Q01DX009 (ip), vehicle: Klucel (hydroxypropylcellulose) (HPC)) was 108 % of control.

Cn1c(=O)c2c(ncn2CCN2CCNCC2)n(C)c1=O was tested, and the T/C (dose: 50.0 mg/kg/injection, schedule: Q01DX005 (ip), vehicle: distilled water + alcohol) was 102 % of control, the T/C (dose: 100.0 mg/kg/injection, schedule: Q01DX005 (ip), vehicle: distilled water + alcohol) was 100 % of control and the T/C (dose: 200.0 mg/kg/injection, schedule: Q01DX005 (ip), vehicle: distilled water + alcohol) was 100 % of control.

O=C(O)CN(CC(=O)O)Cc1cc2c(c(O)c1O)C(=O)c1ccccc1C2=O was tested, and the T/C (dose: 6.25 mg/kg/injection, schedule: Q01DX009 (ip), vehicle: saline with Tween-80) was 97 % of control, the T/C (dose: 12.5 mg/kg/injection, schedule: Q01DX009 (ip), vehicle: saline with Tween-80) was 101 % of control and the T/C (dose: 25.0 mg/kg/injection, schedule: Q01DX009 (ip), vehicle: saline with Tween-80) was 93 % of control. The T/C [7] was 100 % of control and the T/C [8] was 100 % of control.

C1CC(N2CC2)CCC1N1CC1 (centres undefined) was tested, and the T/C (dose: 1.56 mg/kg/injection, schedule: Q01DX009 (ip), vehicle: saline) was 182 % of control and the T/C [6] was 237 % of control.

In the case of Nc1nc2ccc(NCc3ccc(C(=O)NC(CCC(=O)O)C(=O)O)cc3)cc2c(=O)[nH]1 (centres undefined), the T/C [10] is reported as 108 % of control, the T/C (dose: 12.5 mg/kg/injection, schedule: Q01DX005 (ip), vehicle: saline with Tween-80) is reported as 108 % of control and the T/C (dose: 25.0 mg/kg/injection, schedule: Q01DX005 (ip), vehicle: saline with Tween-80) is reported as 103 % of control and 108 % of control. For the same molecule, the T/C [9] was 113 % of control and 117 % of control.
